Source: patent US9505762B2, “Purine derivatives as CB2 receptor agonists” (Hoffmann-La Roche Inc., priority 2013, dated 2016)

What was measured:
human CB2 receptors = human CB2 receptors (Homo sapiens (Human), UniProt P34972); assay: functional cAMP assay, CB2; type: cell-based; details: CHO cells expressing human CB2
Procedure: (§1) The growth medium was exchanged with Krebs Ringer Bicarbonate buffer with 1 mM IBMX and incubated at 30° C. for 30 min. Compounds were added to a final assay volume of 100 μl and incubated for 30 min at 30° C. Using the cAMP-Nano-TRF detection kit the assay (Roche Diagnostics) was stopped by the addition of 50 μl lysis reagent (Tris, NaCl, 1.5% Triton X100, 2.5% NP40, 10% NaN3) and 50 μl detection solutions (20 μM mAb Alexa700-cAMP 1:1, and 48 μM Ruthenium-2-AHA-cAMP) and shaken for 2 h at room temperature. The time-resolved energy transfer is measured by a TRF reader (Evotec Technologies GmbH), equipped with a ND:YAG laser as excitation source. The plate is measured twice with the excitation at 355 nm and at the emission with a delay of 100 ns and a gate of 100 ns, total exposure time 10 s at 730 (bandwidth 30 nm) or 645 nm (bandwidth 75 nm), respectively.
(§2) EC50 values were determined using Activity Base analysis (ID Business Solution, Limited).

human CB1 receptors = human CB1 receptors (Homo sapiens (Human), UniProt P21554); assay: functional cAMP assay, CB1; type: cell-based; details: CHO cells expressing human CB1
Sequence of human CB1 receptors (P21554 whole entry): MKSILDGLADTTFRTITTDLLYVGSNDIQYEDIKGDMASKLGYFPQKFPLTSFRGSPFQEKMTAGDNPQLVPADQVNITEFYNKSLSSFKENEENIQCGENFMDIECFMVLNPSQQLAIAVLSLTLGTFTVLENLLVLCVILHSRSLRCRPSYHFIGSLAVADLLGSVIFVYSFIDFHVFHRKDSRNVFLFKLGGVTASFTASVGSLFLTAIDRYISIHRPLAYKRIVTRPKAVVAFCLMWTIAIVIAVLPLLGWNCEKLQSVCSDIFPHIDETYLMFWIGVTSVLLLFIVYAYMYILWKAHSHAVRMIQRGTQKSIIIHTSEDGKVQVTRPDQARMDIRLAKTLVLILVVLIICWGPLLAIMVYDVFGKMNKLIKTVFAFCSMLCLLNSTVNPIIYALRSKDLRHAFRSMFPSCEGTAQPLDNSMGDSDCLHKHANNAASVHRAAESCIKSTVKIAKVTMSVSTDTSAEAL
Procedure: as §1, §2

Sequence of human CB2 receptors (P34972 whole entry): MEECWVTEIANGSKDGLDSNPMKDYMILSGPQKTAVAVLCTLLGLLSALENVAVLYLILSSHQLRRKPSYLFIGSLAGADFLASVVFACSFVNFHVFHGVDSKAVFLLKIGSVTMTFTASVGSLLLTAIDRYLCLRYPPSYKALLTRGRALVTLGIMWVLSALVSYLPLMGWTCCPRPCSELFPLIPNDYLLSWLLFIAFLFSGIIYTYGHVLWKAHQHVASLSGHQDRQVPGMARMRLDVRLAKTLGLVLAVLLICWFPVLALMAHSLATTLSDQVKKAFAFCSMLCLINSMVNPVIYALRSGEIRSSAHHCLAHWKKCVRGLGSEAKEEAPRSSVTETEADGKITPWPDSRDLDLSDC

CC(C)n1nnnc1Cn1cnc2c(N3CC[C@H](O)C3)nc(C(C)(C)C)nc21 [Example 155, (3S)-1-[2-tert-butyl-9-[(1-propan-2-yltetrazol-5-yl)methyl]purin-6-yl]pyrrolidin-3-ol]
EC50 (human CB2 receptors): 0.0823 µM | EC50 (human CB1 receptors): > 10 µM

COCCn1cnc2c(N3CCC(C)(O)C3)nc(C(C)(C)C)nc21 (stereo not drawn) [Example 71, 1-[2-tert-butyl-9-(2-methoxyethyl)purin-6-yl]-3-methylpyrrolidin-3-ol]
EC50 (human CB1 receptors): > 10 µM

Cc1nonc1Cn1cnc2c(N3CCC4(COC4)C3)nc(C(C)(C)C)nc21 [Example 62, 7-[2-tert-butyl-9-[(4-methyl-1,2,5-oxadiazol-3-yl)methyl]purin-6-yl]-2-oxa-7-azaspiro[3.4]octane]
EC50 (human CB2 receptors): 0.146 µM | EC50 (human CB1 receptors): > 10 µM

CC(C)(C)Nc1nc(N2CCC(F)(F)C2)c2ncn(Cc3ccccc3C(F)(F)F)c2n1 [Example 108, N-tert-butyl-6-(3,3-difluoropyrrolidin-1-yl)-9-[[2-(trifluoromethyl)phenyl]methyl]purin-2-amine]
EC50 (human CB2 receptors): 0.0067 µM | EC50 (human CB1 receptors): > 10 µM

CC(C)(C)c1nc(N2CCC[C@@H]2CO)c2ncn(Cc3nnnn3C3CC3)c2n1 [Example 146, [(2R)-1-[2-tert-butyl-9-[(1-cyclopropyltetrazol-5-yl)methyl]purin-6-yl]pyrrolidin-2-yl]methanol]
EC50 (human CB1 receptors): > 10 µM

Cc1ccc(Cn2cnc3c(N4CCC(F)(F)C4)nc(C(C)(C)C)nc32)cc1 [Example 3, 2-tert-butyl-6-(3,3-difluoropyrrolidin-1-yl)-9-[(4-methylphenyl)methyl]purine]
EC50 (human CB1 receptors): > 10 µM

CC(C)(C)Nc1nc(N2CCC(F)(F)C2)c2ncn(Cc3ncccc3Cl)c2n1 [Example 112, N-tert-butyl-9-[(3-chloropyridin-2-yl)methyl]-6-(3,3-difluoropyrrolidin-1-yl)purin-2-amine]
EC50 (human CB2 receptors): 0.0079 µM | EC50 (human CB1 receptors): > 10 µM

Cc1nonc1Cn1cnc2c(N3CCSC3)nc(C(C)(C)C)nc21 [Example 150, 3-[[2-tert-butyl-6-(1,3-thiazolidin-3-yl)purin-9-yl]methyl]-4-methyl-1,2,5-oxadiazole]
EC50 (human CB2 receptors): 0.0105 µM | EC50 (human CB1 receptors): > 10 µM

CC(C)(C)c1nc(N2CCC(F)(F)C2)c2ncn(Cc3nnnn3C3CC3)c2n1 [Example 156, 2-tert-butyl-9-[(1-cyclopropyltetrazol-5-yl)methyl]-6-(3,3-difluoropyrrolidin-1-yl)purine]
EC50 (human CB2 receptors): 0.0091 µM | EC50 (human CB1 receptors): > 10 µM

CC(C)(C)c1nc(N2CCSC2)c2ncn(Cc3ncccc3Cl)c2n1 [Example 161, 3-[2-tert-butyl-9-[(3-chloropyridin-2-yl)methyl]purin-6-yl]-1,3-thiazolidine]
EC50 (human CB2 receptors): 0.0126 µM | EC50 (human CB1 receptors): > 10 µM

Cc1nonc1Cn1cnc2c(N3CC4(COC4)C3)nc(C(C)(C)C)nc21 [Example 149, 6-[2-tert-butyl-9-[(4-methyl-1,2,5-oxadiazol-3-yl)methyl]purin-6-yl]-2-oxa-6-azaspiro[3.3]heptane]
EC50 (human CB2 receptors): 0.185 µM | EC50 (human CB1 receptors): > 10 µM

COCCn1cnc2c(N3CC[C@H](O)C3)nc(C(C)(C)C)nc21 [Example 94, (3S)-1-[2-tert-butyl-9-(2-methoxyethyl)purin-6-yl]pyrrolidin-3-ol]
EC50 (human CB2 receptors): 0.44 µM | EC50 (human CB1 receptors): > 10 µM

CC(C)(C)Nc1nc(N2CC[C@H](O)C2)c2ncn(Cc3ccccc3C(F)(F)F)c2n1 [Example 117, (3S)-1-[2-(tert-butylamino)-9-[[2-(trifluoromethyl)phenyl]methyl]purin-6-yl]pyrrolidin-3-ol]
EC50 (human CB2 receptors): 0.0072 µM | EC50 (human CB1 receptors): > 10 µM

Cc1noc(Cn2cnc3c(N4CCC(O)C4)nc(C(C)(C)C)nc32)n1 (stereo not drawn) [Example 29, 1-[2-tert-butyl-9-[(3-methyl-1,2,4-oxadiazol-5-yl)methyl]purin-6-yl]pyrrolidin-3-ol]
EC50 (human CB2 receptors): 0.427 µM | EC50 (human CB1 receptors): > 10 µM

CC(C)(C)c1nc(N2CCC(F)(F)C2)c2ncn(Cc3c[nH]nc3C(F)(F)F)c2n1 [Example 41, 2-tert-butyl-6-(3,3-difluoropyrrolidin-1-yl)-9-[[3-(trifluoromethyl)-1H-pyrazol-4-yl]methyl]purine]
EC50 (human CB2 receptors): 0.0092 µM

CC(=O)N[C@H]1CCN(c2nc(C(C)(C)C)nc3c2ncn3Cc2ccccc2Cl)C1 [Example 48, N—{(S)-1-[2-tert-Butyl-9-(2-chloro-benzyl)-9H-purin-6-yl]-pyrrolidin-3-yl}-acetamide]
EC50 (human CB1 receptors): > 10 µM

CC(C)(C)c1nc(N2CC[C@H](O)C2)c2ncn(Cc3ccc(Cl)cc3)c2n1 [Example 88, (3S)-1-[2-tert-butyl-9-[(4-chlorophenyl)methyl]purin-6-yl]pyrrolidin-3-ol]
EC50 (human CB1 receptors): > 10 µM

CC(C)(C)c1nc(N2CCC(F)(F)C2)c2ncn(CCC(F)(F)F)c2n1 [Example 19, 2-tert-butyl-6-(3,3-difluoropyrrolidin-1-yl)-9-(3,3,3-trifluoropropyl)purine]
EC50 (human CB1 receptors): > 10 µM

CC(=O)N[C@H]1CCN(c2nc(C(C)(C)C)nc3c2ncn3Cc2nonc2C)C1 [Example 55, N—[(S)-1-[2-tert-butyl-9-[(4-methyl-1,2,5-oxadiazol-3-yl)methyl]purin-6-yl]pyrrolidin-3-yl]acetamide]
EC50 (human CB1 receptors): > 10 µM

CC(C)(C)c1nc(N2CCC(F)(F)C2)c2ncn(CCc3ccccc3)c2n1 [Example 13, 2-tert-butyl-6-(3,3-difluoropyrrolidin-1-yl)-9-(2-phenylethyl)purine]
EC50 (human CB2 receptors): 0.0054 µM

CC(C)(C)c1nc(N2CCC(O)C2)c2ncn(Cc3ccc(Cl)cc3)c2n1 (stereo not drawn) [Example 26, 1-[2-tert-butyl-9-[(4-chlorophenyl)methyl]purin-6-yl]pyrrolidin-3-ol]
EC50 (human CB1 receptors): > 10 µM

CC(C)(C)c1nc(N2CC(F)(F)C2)c2ncn(Cc3ncccc3Cl)c2n1 [Example 160, 2-tert-butyl-9-[(3-chloropyridin-2-yl)methyl]-6-(3,3-difluoroazetidin-1-yl)purine]
EC50 (human CB1 receptors): > 10 µM

CCCn1cnc2c(N3CCC(O)C3)nc(C(C)(C)C)nc21 (stereo not drawn) [Example 36, 1-(2-tert-butyl-9-propylpurin-6-yl)pyrrolidin-3-ol]
EC50 (human CB1 receptors): > 10 µM

CC(C)(C)c1nc(N2CCC(F)(F)C2)c2ncn(Cc3ccccc3C(F)(F)F)c2n1 [Example 5, 2-tert-butyl-6-(3,3-difluoropyrrolidin-1-yl)-9-[[2-(trifluoromethyl)phenyl]methyl]purine]
EC50 (human CB2 receptors): 0.0007 µM

CC1(O)CCN(c2nc(C(C)(C)C)nc3c2ncn3Cc2ccc(Cl)cc2)C1 (stereo not drawn) [Example 66, 1-[2-tert-butyl-9-[(4-chlorophenyl)methyl]purin-6-yl]-3-methylpyrrolidin-3-ol]
EC50 (human CB1 receptors): > 10 µM

CC(C)(C)c1nc(N2CCC(F)(F)C2)c2ncn(Cc3cccnc3Cl)c2n1 [Example 6, 2-tert-butyl-9-[(2-chloropyridin-3-yl)methyl]-6-(3,3-difluoropyrrolidin-1-yl)purine]
EC50 (human CB2 receptors): 0.0005 µM

CC(C)(C)c1nc(N2CCC(F)(F)C2)c2ncn(Cc3ccccc3Cl)c2n1 [Example 2, 2-tert-butyl-9-[(2-chlorophenyl)methyl]-6-(3,3-difluoropyrrolidin-1-yl)purine]
EC50 (human CB2 receptors): 0.0006 µM

CC(C)(C)Nc1nc(N2CC[C@H](O)C2)c2ncn(Cc3c[nH]nc3C(F)(F)F)c2n1 [Example 122, (3S)-1-[2-(tert-butylamino)-9-[[3-(trifluoromethyl)-1H-pyrazol-4-yl]methyl]purin-6-yl]pyrrolidin-3-ol]
EC50 (human CB1 receptors): > 10 µM

Cc1nonc1Cn1cnc2c(N3CCC(C)(O)C3)nc(C(C)(C)C)nc21 (stereo not drawn) [Example 70, 1-[2-tert-butyl-9-[(4-methyl-1,2,5-oxadiazol-3-yl)methyl]purin-6-yl]-3-methylpyrrolidin-3-ol]
EC50 (human CB1 receptors): > 10 µM

Cc1nnc(Cn2cnc3c(N4CCC(F)(F)C4)nc(NC(C)(C)C)nc32)o1 [Example 109, N-tert-butyl-6-(3,3-difluoropyrrolidin-1-yl)-9-[(5-methyl-1,3,4-oxadiazol-2-yl)methyl]purin-2-amine]
EC50 (human CB1 receptors): > 10 µM

Cc1nonc1Cn1cnc2c(N3CC(F)(F)C(F)(F)C3)nc(C(C)(C)C)nc21 [Example 82, 3-[[2-tert-butyl-6-(3,3,4,4-tetrafluoropyrrolidin-1-yl)purin-9-yl]methyl]-4-methyl-1,2,5-oxadiazole]
EC50 (human CB1 receptors): > 10 µM

CCCn1cnc2c(N3CCC(F)(F)C3)nc(C(C)(C)C)nc21 [Example 10, 2-tert-butyl-6-(3,3-difluoropyrrolidin-1-yl)-9-propylpurine]
EC50 (human CB1 receptors): > 10 µM

CC(C)(C)c1nc(N2CC(F)(F)C(F)(F)C2)c2ncn(Cc3ccccc3Cl)c2n1 [Example 72, 2-tert-butyl-9-[(2-chlorophenyl)methyl]-6-(3,3,4,4-tetrafluoropyrrolidin-1-yl)purine]
EC50 (human CB1 receptors): > 10 µM

CC(C)(C)c1nc(N2CC[C@H](O)C2)c2ncn(Cc3nnnn3C(C)(C)C)c2n1 [Example 166, (3S)-1-[2-tert-butyl-9-[(1-tert-butyltetrazol-5-yl)methyl]purin-6-yl]pyrrolidin-3-ol]
EC50 (human CB1 receptors): > 10 µM

CC(C)(C)Nc1nc(N2CC3(COC3)C2)c2ncn(Cc3ccccc3C(F)(F)F)c2n1 [Example 137, N-tert-butyl-6-(2-oxa-6-azaspiro[3.3]heptan-6-yl)-9-[[2-(trifluoromethyl)phenyl]methyl]purin-2-amine]
EC50 (human CB1 receptors): > 10 µM

Cc1nonc1Cn1cnc2c(N3CCN(C)CC3)nc(C(C)(C)C)nc21 [Example 144, 3-[[2-tert-butyl-6-(4-methylpiperazin-1-yl)purin-9-yl]methyl]-4-methyl-1,2,5-oxadiazole]
EC50 (human CB1 receptors): > 10 µM

COCCn1cnc2c(N3CCC(F)(F)C3)nc(C(C)(C)C)nc21 [Example 15, 2-tert-butyl-6-(3,3-difluoropyrrolidin-1-yl)-9-(2-methoxyethyl)purine]
EC50 (human CB1 receptors): > 10 µM
